From patent US7265091B2, “Methods and compositions for treating male erectile dysfunction” (The Regents of the University of California, priority 2000, dated 2007)

What was measured:
[1] = system: dorsal nerve, intracavernosal smooth muscle and endothelium; settings: ligated rats, 4 μg of VEGF
Protocol: The penis was dissected, thinly sliced (˜1 mm thick) and placed in Karnovsky's fixative (1% para-formaldehyde/3% glutaraldehyde/0.1 M sodium cacodylate buffer, pH 7.4) at room temperature for 30 minutes and then stored at 4° C. The fixed tissue was then rinsed in buffer, post-fixed in 2% aqueous OsO4, and stained en bloc with uranyl acetate before being dehydrated in ethanol, cleared in propyline oxide, and embedded in eponate 12 (Ted Pella Co., Redding, Calif.). Thick sections were cut and stained with toludine blue, examined under light microscope to select the area to be thin-sectioned. Thin sections were cut by Leica ultracut E microtome (Bannockburn, Ill.), stained with uranyl acetate and Reynold's Lead to enhance contrast and examined under Philips Tecnai 10 electron microscope (Eidhoven, Netherlands).

[2] = system: venogenic erectile dysfunction in castrated rats; test: Pharmacologic cavernosometry, prevention trial in castrated rats (Experiment 2); type: in vivo, rat; settings: castrated rats treated at castration, cavernosometry 9 weeks after castration
Source text: For the prevention trial of VEGF in rats with venogenic erectile ED, adult males were castrated and immediately treated with hormone, intracavernosal VEGF. […] Control animals received an silastic implant containing saline (n=3), an intracavernous injection of normal saline (n=3) or an […] transfection vector expressing lacZ reporter gene without the VEGF gene (AAV-LacZ, n=11).
A 1.5 cm oblique incision was made in the lower abdominal skin extending from the midline just above the penile hilum to below the level of the glans about 1 cm lateral to the midline. The skin was sharply dissected from the anterior surface of the penis and then the penis was retracted anteriorly using a towel clamp placed around it atraumatically with the foreskin left intact. Using blunt dissection the penile base and crura were exposed. The ischiocavernosus muscles were sharply dissected off the anterior surface of the crus until the white of the tunica albuginea of the corpora cavernosa was identified. The crus was then gently cannulated using a 23 gage butterfly needle, and saline flush with a visual erectile response was used to confirm that the needle tip was truly intracavernosal. The intracavernosal injections were then administered with either VEGF protein (Calbiochem, La Jolla, Calif. #676472) at the dosage 4 ug/injection (in 0.1 cc PBS with 0.1% BSA), AAV-VEGF (10^10 viral particles in 0.1 cc NS), AAV-LacZ (10^10 viral particles in 0.1 cc NS), or 0.1 ml NS alone. The AAV-VEGF and AAV-LacZ constructs were a generous gift from Dr. Yuet W. Kan (Howard Hughes Medical Research Institute, San Francisco, Calif.).^19,20 Following injection, the needle was left in place for 5 minutes and then removed to allow the medication to diffuse throughout the cavernosal space. Immediately thereafter, pinpoint electrocautery was applied to the needle hole for hemostasis and then the wound was closed and the animal recovered as above.
Following castration, testosterone- or saline-filled silastic implants were placed in the subcutaneous tissue of the anterior abdominal wall, as previously described.^17 Implants were prepared using sterile silastic tubing (Dow Coming, Midland, Mich. #602-265, inner diameter 0.062″) that was filled with testosterone propionate powder (Sigma Chemical, St. Louis, Mo.) with the aid of wall suction.
To perform pharmacologic cavemosometry, both the right and left crura were separately cannulated using 23 gauge butterfly needles as described above. One cannula was flushed with sterile heparinized saline (100 U heparin/ml NS) and attached to a pressure detector for continuous intracorporal pressure (ICP) monitoring as previously described.^11 The contralateral cannula was attached to an infusion pump (Harvard Pump, Southwick, Mass. #55-2222), filled with sterile dilute heparinized saline (20 U heparin/ml NS). The baseline ICP was recorded (flaccid ICP) and then a dose of papavarine (1 mg in 0.1 cc NS) was administered through the infusion cannula. Five minutes was allowed for the papavarine to diffuse throughout the corpora and then the infusion cannula was flushed with heparinized saline and the pressure monitor cannula vented to normalize ICP after flushing. After 5 minutes more, the ICP was again recorded (ICP after papavarine) and the infusion started. An infusion rate of 0.05 ml/min was started and increased (by 0.05 ml/min every 10 seconds) until the ICP started to rise. Subsequent increases in inflow rate were made only after the ICP reached a plateau pressure. By slowly adjusting the inflow rate, an intracorporal pressure of 100 cm H2O (erectile pressure) was reached and the infusion rate required to maintain this pressure recorded (the maintenance rate). After this pressure was steady for 20 seconds, the infusion was terminated and the change in ICP over the subsequent 60 seconds was recorded (the drop rate).

[3] = system: penile smooth muscle (alpha actin); test: Alpha-smooth muscle actin immunohistochemistry of rat penis with image analysis; type: in vivo; settings: castrated rats
Protocol: Frozen sections were cut at 10 microns, adhered to charged slides, air dried for 15 minutes then rehydrated with 0.05M PBS for 5 minutes. […] The serum solution was drained and then sections were incubated for 60 minutes with mouse monoclonal anti-alpha-smooth muscle actin (Sigma, St. Louis, Mo.) at a dilution of 1:4000 in PBS. […] Immunochemistry was performed in penile tissues from 4 rats randomly chosen from each subgroup.
Cross-sectional micrographs of the rat penis at the proximal shaft were examined after immunohistochemistry for alpha actin. Alpha actin, a marker for penile smooth muscle, stains brown and can be seen surrounding the sinusoidal spaces. […] Computerized image analysis with Adobe Photoshop was used to quantify the area of immunostaining by counting the number of digitized pixels corresponding to the area of brown staining, thereby providing some numerical comparison of the quantity of smooth muscle in each specimen.

[4] = system: major pelvic ganglia (MPG); test: Nerve fiber outgrowth from cultured major pelvic ganglia; type: cell-based, rat; design: Average fiber length / FIBER LENGTH (average lengths of the growing fibers): unit not given here
Protocol: Each freshly isolated MPG was cut into 8 pieces of approximately equal size and each piece was then attached to a Matrigel-coated coverslip. The MPG pieces were cultured in serum-free medium supplemented with phosphate-buffered saline (PBS, control), 50 ng/ml of vascular endothelial growth factor (VEGF), 20 ng/ml of brain-derived neurotrophic factor (BDNF), or VEGF+BDNF. After 2 days of incubation, the ganglial tissues with their outgrowing nerve fibers were stained for the expression of NADPH diaphorase and acetylcholinesterase (AchE).
We have been using several experimental systems to test the efficacy of combination growth factor therapies for impotence. One system employs cultured rat major pelvic ganglia (MPG) that are known to innervate all urogenital organs, including the penis. We discovered that the cultured MPG are able to sprout new nerve fibers (nerve regeneration) from the axonal ends during the first 3 days of culture, especially when treated with VEGF, BDNF, NT-3, or NT-4.

[5] = system: cavernous nerve injury in rats; test: Maximal intracavernous pressure after bilateral cavernous nerve freezing (Example 9, VENT); type: in vivo, rat; settings: 3 months after bilateral cavernous nerve freezing, intracavernous injection
Protocol: (§1) Three months old Sprague-Dawley rats (N=30) were used: 6 underwent a sham operation; 24 underwent bilateral cavernous nerve freezing and then randomly divided into four groups of 6 each. The four groups of rats received intracavernous injection of one of the following: 1) phosphate buffered saline (PBS), 2) VEGF protein (4 μg), 3) adeno-associated virus (AAV)-BDNF, and 4). VEGF+AAV-BDNF. Erectile function was assessed by cavernous nerve electrostimulation 3 months later and samples of penile tissue were obtained for electron microscopy and immunohistochemical studies.

[6] = system: blood vessels and nerve fibers in the penis; test: Penile tissue histology, nNOS staining and electron microscopy (Example 9); type: in vivo, rat; settings: 3 months after bilateral cavernous nerve freezing
Protocol: as §1

[7] = system: Rodent Model of Neurogenic Erectile Dysfunction; settings: VEGF 4 ug intracavernous, three months after bilateral cavernous nerve freezing
Protocol: Seventeen 3 months old Sprague Dowry rats underwent bilateral freezing of the cavernous nerves with a thermocouple immersed in liquid nitrogen. Through an abdominal incision both cavernous nerves were isolated lateral to the prostate and frozen with thermocouple for one minute twice (temperature cycle −130° C. to −3° C.). Minutes later, intracavernous injection of saline (n=7) or VEGF, 4 ug, (n=9) was given. Three months later, all rats underwent re-exploration and electrostimulation of the cavernous nerves to assess erectile function. Eight additional rats underwent exploration only (sham group)

Penile dorsal arteries = settings: serum-free medium, 3 days
Protocol: Penile dorsal arteries were isolated from rats and cut into 1-mm segments under a 10× microscope. Each segment was attached to a Matrigel-coated coverslip, which was then put in a 60-mm culture dish. Serum-free medium with or without VEGF was added and the arterial culture was incubated for 3 days.

[8] = 50 ng/ml VEGF, 20 ng/ml BDNF, 2 days of incubation

Which “appearance of endothelium of sinusoids and capillaries” value ([1]; 2 and 6-week groups) does the source give for VEGF here?
The value was “endothelial cell hypertrophy and hyperplasia”.

What about the “appearance of intracavernosal smooth muscle cells” value ([1]; 2 and 6-week groups) of the same substance?
The value was “most of the smooth muscle cells appeared normal”.

And the “mean diameter of the myelinated axons, dorsal nerve” value ([1]; week 6)?
The value was 6.19±2.38 μm.

And the “mean diameter of the nonmyelinated axons, dorsal nerve” value ([1]; week 6)?
The value was 0.82±0.45 μm.

What about the “Drop Rate in 1 min.” value [2] of the same substance?
Its value is 9.0(+/−20) cm H2O.

And the “Flaccid ICP” value [2]?
Its value is 27.8 cm H2O.

And the “ICP After Papavarine” value [2]?
The value was 85.0(+/−28) cm H2O.

What about the “Maintenance Rate” value [2] of the same substance?
The value was 0.04(+/−0.09) ml/min.

What about the “quantity of penile smooth muscle, qualitative” value [3] of the same substance?
Its value is “returns to normal morphology”.

What about the “pixel count of alpha actin immunostaining (quantity of smooth muscle)” value ([3]; proximal penile shaft) of the same substance?
Its value is 52990.

And the AchE staining intensity [4, 8]?
The AchE staining intensity was 8,470±199 IDV.

What about the NADPH staining intensity [4, 8] of the same substance?
Its NADPH staining intensity is 10,126±187 IDV.

And the “FIBER LENGTH (average lengths of the growing fibers)” value ([4]; 48 hours after culturing)?
Its value is 89.

What about the “maximal intracavernous pressure (MICP), mean±SEM” value [5] of the same substance?
Its value is 37.33±3.29 cm H2O.

And the “nNOS positive nerve fibers in the dorsal nerves compared to PBS group” value [6]?
The value was “increased number”.

And the maximal intracavernous pressure [7]?
The maximal intracavernous pressure was 72.78±10.87 cm H2O.

What about the “length of budding new blood vessels vs untreated culture” value (Penile dorsal arteries) of the same substance?
The value was “significantly longer”.
